Measured values from patent US9765077B2, “Synthesis of duocarmycin analogues” (University of East Anglia, priority 2015, dated 2017).
Where a name gives a salt, the structure may show the parent alone.

Tested on: HL60 human leukaemia cell lines
Experiment: Antiproliferative activity by MTS assay (CellTiter 96 Aqueous One Solution)
Assay type: cell-based
Settings: HL-60, HL60 cells, 72 hr treatment, triplicate
Protocol: Antiproliferative activity was determined by MTS assay (Howell L A, Bowater R A, O'Connell M A, Reszka A P, Neidle S, Searcey M. (2012) Synthesis of Small Molecules Targeting Multiple DNA Structures using Click Chemistry. ChemMedChem, 7, 792-804) using the CellTiter 96 Aqueous One Solution Cell Proliferation Assay (Promega) and following the manufacturer's instructions.
The HL60 cell line was purchased from ECACC (Porton Down, UK). Cells were cultured in RPMI 1640 medium supplemented with 10% foetal calf serum and 2 mM L-glutamine. HL-60 cells were passaged twice weekly and maintained between 1-9×10^5 cells/ml at 37° C. and 5% CO2.
HL-60 cells (3×10^4/100 μl) were seeded in 96-well plates and left untreated or treated with DMSO (vehicle control), duocarmycins, or doxorubicin hydrochloride at 8 concentrations (see below) in triplicate for 72 hr at 37° C. with 5% CO2. Following this, MTS assay reagent was added for 4 hrs and the absorbance measured at 490 nm using the Polarstar Optima microplate reader (BMG Labtech). IC50 values were calculated using GraphPad Prism Version 5.0 software.

COc1cccc2c1C(=O)c1c(O)c3c(c(O)c1C2=O)C[C@@](O)(C(=O)CO)C[C@@H]3O[C@H]1C[C@H](N)[C@H](O)[C@H](C)O1 [Doxorubicin, doxorubicin hydrochloride]
IC50: 125 nM
